Results on ten molecules are retold here after patent US11560380B2, “Substituted naphthalene diimides and their use” (UCL Business Ltd, priority 2019, dated 2023).

The term IC50 denotes the concentration that inhibits the measured activity by half. For orientation: fraction unbound means free concentration divided by total concentration. As usually defined, the solubility is how much of the substance goes into solution per volume.

Data set [1] deals with MIA-PACA2 cells. Description: MTS cell proliferation assay (CellTiter 96 AQueous One Solution), 96 hr. The conditions noted are these: Homo sapiens, MIA PaCa-2, 96 hr MTS assay. In kind it is cell-based. The source says: The CellTiter 96® AQueous One Solution Cell Proliferation Assay ([…]) is a colorimetric method for determining the number of viable cells in proliferation or cytotoxicity assays. The CellTiter 96® AQueous One Solution Reagent contains a novel tetrazolium compound [3-(4,5-dimethylthiazol-2-yl)-5-(3-carboxymethoxyphenyl)-2-(4-sulfophenyl)-2H-tetrazolium, inner salt; MTS] and an electron coupling reagent (phenazine ethosulfate; PES). PES has enhanced chemical stability, which allows it to be combined with MTS to form a stable solution. The MTS tetrazolium compound (Owen's reagent) is bioreduced by cells into a colored formazan product that is soluble in tissue culture medium. Assays are performed by adding a small amount of the CellTiter 96@ AQueous One Solution Reagent directly to culture wells, incubating for 1-4 hours and then recording the absorbance at 490 nm with a 96-well plate reader. The quantity of formazan product as measured by absorbance at 490 nm is directly proportional to the number of living cells in culture. The kit was used as per the manufacturers' instructions. After 96-hour incubation with each example compound in MIA-PACA2 cells, the cell proliferation of each sample was measured using the MTS Cell Titre 96 Aqueous One Solution Cell Proliferation Assay (Promega Ltd). The percentage of inhibition was calculated against the mean of the DMSO treated controls samples.
(Tetrazolium dyes change colour on reduction, which living cells bring about.)

Data set [2] has as its system PC-3. Description: 72 hr XTT cell viability assay, PC-3. In kind it is cell-based. The note with it: Homo sapiens; PC-3, 72 hr XTT; read-out: IC50 cell growth inhibition. The source says:
(§1) The CyQUANT XTT Cell Viability Assay (Invitrogen) is a complete, optimized assay that generates a consistent colorimetric detection of viable mammalian cells. The assay kit consists of two reagents, XTT Reagent (2,3-bis-(2-methoxy-4-nitro-5-sulfophenyl)-2H-tetrazolium-5-carboxanilide) and Electron Coupling Reagent. XTT Reagent is used to assess cell viability as a function of cellular redox potential, and the electron coupling reagent improves the dynamic range of the assay. The kit was used as per the manufacturers' instructions.

Data set [3] has as its system LNCaP. The data set is described as follows: 72 hr XTT cell viability assay, LNCaP. In kind it is cell-based. The note with it: Homo sapiens, read-out: IC50 cell growth inhibition.
Source text: as §1

Data set [4] relates to MIA-PACA2^gemR. The data set is described as follows: 96 hr SRB cell growth inhibition, MIA-PACA2 gemR. In kind it is cell-based. The note with it: Homo sapiens, MIA PaCa-2.
Data set [5] concerns CAPAN-1. Description: 96 hr SRB cell growth inhibition, CAPAN-1. In kind it is cell-based. The conditions noted are these: Homo sapiens; CAPAN-1, 96 hr SRB.
Data set [6] relates to MIA-PACA2 tumours. The data set is described as follows: In vivo xenograft efficacy study, MIA-PACA2 model. The note with it: for complete regression in tumour volume at the end of the dosing period: 1 mg/kg IV, 28 days; for tumours not showing complete regression, versus vehicle control: minority of tumours in the group. As for the experimental part: Mice aged 5-7 weeks weighing approximately 25-32 g were implanted for the study and purchased from Charles River. The pancreatic tumour cell implantation procedure involved MIA-PACA2 cells (1×10^7 in Matrigel) being implanted subcutaneously using a 22-gauge needle onto the rear flank of the mice. Parameters evaluated include: tumour size and animal bodyweight. Tumour volume was measured three times weekly and bodyweight at least 3 times weekly. Allocation to treatment groups was done randomly when tumours reached approximately 50 mm^3 for animals in the efficacy study. […] Each group comprised 8 animals. All protocols used in this study were approved by the appropriate Animal Welfare and Ethical Review Board, and all procedures were carried out under the guidelines of the UK Animal (Scientific Procedures) Act 1986.
The data shown is mean±SD n=8 up to day 23 and n=4 to the end of the study. […] The starting tumour volumes were […]. Example 1 was active in both of the dosage regimens examined, 1× weekly and 2× weekly, both at a 1 mg/kg dose. Both had ⅝ complete regression in tumour volume at the end of the dosing period.

Data set [7] has as its system DU145. Description: 72 hr XTT cell viability assay, DU145. In kind it is cell-based. The conditions noted are these: Homo sapiens, DU-145; DU145, 72 hr XTT; read-out: IC50 cell growth inhibition.
Source text: as §1

A short description of data set [8]: Stability in saline at 0° C. In kind it is physicochemical.
The subject of data set [9] is 22RV1. Description: 72 hr XTT cell viability assay, 22RV1. In kind it is cell-based. The note with it: Homo sapiens; 22RV1, 72 hr XTT; read-out: IC50 cell growth inhibition.
Source text: as §1

The nature of data set [10]: Mouse microsomal stability. In kind it is in vitro ADME. The conditions noted are these: mouse microsomes; read-out: t1/2 mouse microsomal stability.
Data set [11] concerns VCaP. The data set is described as follows: 72 hr XTT cell viability assay, VCaP. The conditions noted are these: Homo sapiens, read-out: IC50 cell growth inhibition. In kind it is cell-based.
Source text: as §1

Data set [12] can be described thus: Plasma protein binding in vitro. In kind it is in vitro ADME.
Data set [13] can be described thus: In vitro blood/plasma partitioning. In kind it is in vitro ADME. The conditions noted are these: blood and plasma.
The subject of data set [14] is GQ. Description: FRET melting with GQ. In kind it is binding.
Data set [15] deals with PANC-1. Description: 96 hr SRB cell growth inhibition, PANC-1. In kind it is cell-based. The note with it: Homo sapiens; PANC-1, 96 hr SRB.
Data set [16] deals with MIA-PACA2. The data set is described as follows: 96 hr SRB cell growth inhibition, MIA-PACA2. The conditions noted are these: for IC50: Homo sapiens, MIA PaCa-2, MIA-PACA2, 96 hr SRB. In kind it is cell-based.
Data set [17] concerns BX-PC3. Description: 96 hr SRB cell growth inhibition, BX-PC3. In kind it is cell-based. The conditions noted are these: Homo sapiens, BXPC-3; BX-PC3, 96 hr SRB.
A short description of data set [18]: Aqueous solubility of salt. In kind it is physicochemical. The note with it: water; HCl/formate salt.

Read-outs that look alike come from different tables or passages of the source. Some results are limits rather than exact numbers.

Consider `O=C1c2cc(-c3ccc(CN4CCCCC4)cc3)c3c4c(cc(NCCN5CCCC5)c(c24)C(=O)N1CCCN1CCOCC1)C(=O)N(CCCN1CCOCC1)C3=O` [Example 4, 2,7-bis(3-morpholinopropyl)-4-(4-(piperidin-1-ylmethyl)phenyl)-9-((2-(pyrrolidin-1-yl)ethyl)amino)benzo[lmn][3,8]phenanthroline-1,3,6,8(2H,7H)-tetraone], for which the IC50 in data set [1] (read-out: ABS IC50) was found to be 0.175 nM; in data set [1] (read-out: Rel IC50), 0.132 nM.
For `CN1CCN(Cc2ccc(-c3cc4c5c(c(NCCN6CCCC6)cc6c5c3C(=O)N(CCCN3CCOCC3)C6=O)C(=O)N(CCCN3CCOCC3)C4=O)cc2)CC1` [Example 8], in that order: 0.277 nM and 0.174 nM.
On to `C[C@]12CC[C@H](O)CC1=CC[C@@H]1[C@@H]2CC[C@]2(C)C(c3cccnc3)=CC[C@@H]12` [Abiraterone], for which the results for the IC50 in data set [2] and in data set [3] were 4820 nM and 3860 nM, respectively.
With `O=C1c2cc(-c3ccc(CNC4CCCC4)cc3)c3c4c(cc(NCCN5CCCC5)c(c24)C(=O)N1CCCN1CCOCC1)C(=O)N(CCCN1CCOCC1)C3=O` [Example 6, 4-(4-((cyclopentylamino)methyl)phenyl)-2,7-bis(3-morpholinopropyl)-9-((2-(pyrrolidin-1-yl)ethyl)amino)benzo[lmn][3,8]phenanthroline-1,3,6,8(2H,7H)-tetraone], the IC50 in data set [1] (read-out: ABS IC50) was determined as 0.102 nM; in data set [1] (read-out: Rel IC50), 0.099 nM.
For `O=C1c2cc(-c3ccc(CN4CCOCC4)cc3)c3c4c(cc(NCCN5CCCC5)c(c24)C(=O)N1CCCN1CCOCC1)C(=O)N(CCCN1CCOCC1)C3=O` [Example 2, 4-(4-(morpholinomethyl)phenyl)-2,7-bis(3-morpholinopropyl)-9-((2-(pyrrolidin-1-yl)ethyl)amino)benzo[lmn][3,8]phenanthroline-1,3,6,8(2H,7H)-tetraone], the IC50 amounted to 0.292 nM in data set [1] (read-out: ABS IC50) and 0.188 nM in [1] (read-out: Rel IC50).
For `O=C1c2cc(-c3ccc(CN4CCCCCC4)cc3)c3c4c(cc(NCCN5CCCC5)c(c24)C(=O)N1CCCN1CCOCC1)C(=O)N(CCCN1CCOCC1)C3=O` [Example 7, 4-(4-(azepan-1-ylmethyl)phenyl)-2,7-bis(3-morpholinopropyl)-9-((2-(pyrrolidin-1-yl)ethyl)amino)benzo[lmn][3,8]phenanthroline-1,3,6,8(2H,7H)-tetraone], in that order: 0.182 nM and 0.117 nM.
In the case of `O=C1c2cc(-c3ccc(CN4CCCC4)cc3)c3c4c(cc(NCCN5CCCC5)c(c24)C(=O)N1CCCN1CCOCC1)C(=O)N(CCCN1CCOCC1)C3=O` [Example 1, 2,7-bis(3-morpholinopropyl)-4-((2-(pyrrolidin-1-yl)ethyl)amino)-9-(4-(pyrrolidin-1-ylmethyl)phenyl)benzo[lmn][3,8]phenanthroline-1,3,6,8(2H,7H)-tetraone], the IC50 in data set [4] amounted to 3.8 nM; in [5], 5.9 nM; in data set [2], 3 nM; in [7], 32 nM; in [9], 90 nM; in data set [3], 247 nM. For the same molecule, the IC50 in data set [11] was determined as 68 nM; in data set [15] it was 1.4 nM; in [1] (read-out: ABS IC50) it was 0.056 nM; in [1] (read-out: Rel IC50), 0.035 nM; in data set [16], 1.3 nM; in data set [17] it was 2.6 nM. In addition, the “complete regression in tumour volume at the end of the dosing period” value in data set [6] (1× weekly) and in data set [6] (2× weekly) was “⅝” each time. In addition, the “tumour regrowth in complete regression cohorts” value in data set [6] (28 days post-dosing) was “no regrowth seen after 28 days post-dosing”. For the same molecule, the “tumour growth and tumour size” value in data set [6] (MIA-PACA2 xenograft, 28 days IV administration, followed by 28 days measurement) was “inhibited the growth of the pancreatic tumour and reduced the tumour's size considerably more than the comparative compound C1 or the known anti-cancer drug, Gemcitabine”. Besides, in [6] (compound and dosing schedules, IV, mice), the tolerability result is on record as “well-tolerated showing no sign of adverse effects”. Moreover, the “tumours not showing complete regression, versus vehicle control” value in data set [6] was “reductions in tumour growth, leading to consistently smaller volumes than in the vehicle control groups”. In addition, in [8], the “Stability in saline at 0° C.” value is listed as more than 1 month. Also, the half-life in data set [10] is 268 min. In data set [12], this molecule showed a fraction unbound of 0.339. Also, the blood plasma ratio in data set [13] worked out at 6.1. Besides, the “FRET ΔTm, ° C. with GQ” value in data set [14] worked out at 23.1 °C. Besides, the “greater cellular potency relative to C1” value in data set [16] (compared with C1) came out at 10 fold.
Turning to `CCN(CC)Cc1ccc(-c2cc3c4c(c(NCCN5CCCC5)cc5c4c2C(=O)N(CCCN2CCOCC2)C5=O)C(=O)N(CCCN2CCOCC2)C3=O)cc1` [Example 5, 4-(4-((diethylamino)methyl)phenyl)-2,7-bis(3-morpholinopropyl)-9-((2-(pyrrolidin-1-yl)ethyl)amino)benzo[lmn][3,8]phenanthroline-1,3,6,8(2H,7H)-tetraone], the values for the IC50 in data set [1] (read-out: ABS IC50) and in data set [1] (read-out: Rel IC50) were 0.18 nM and 0.239 nM, respectively.
`O=C1c2ccc3c4c(c(NCCN5CCCC5)cc(c24)C(=O)N1CCCN1CCOCC1)C(=O)N(CCCN1CCOCC1)C3=O` [Example C1, reference compound]: the IC50 in data set [4] was 14.9 nM; in [5], 26.5 nM; in data set [2], 94 nM; in data set [7] it was 113 nM; in [9] it was 90 nM; in data set [3], 394 nM. The IC50 in data set [11] was 135 nM; in data set [15] it was 15.6 nM; in data set [16], 13 nM; in [17] it was 15.5 nM. Besides, in [6], the “tumours not showing complete regression, versus vehicle control” value is listed as “reductions in tumour growth, leading to consistently smaller volumes than in the vehicle control groups”. Also, the “Stability in saline at 0° C.” value in data set [8] is given as more than 1 month. In data set [10], the half-life was more than 480 min. For the same molecule, the fraction unbound in data set [12] was 0.65. The blood plasma ratio in [13] was 10.9. Also, the solubility in [18] was more than 5000 µg/mL. The “FRET ΔTm, ° C. with GQ” value in data set [14] is 17.6 °C.
Turning to `O=C1c2cc(-c3cccc(CN4CCCC4)c3)c3c4c(cc(NCCN5CCCC5)c(c24)C(=O)N1CCCN1CCOCC1)C(=O)N(CCCN1CCOCC1)C3=O` [Example 3, 2,7-bis(3-morpholinopropyl)-4-((2-(pyrrolidin-1-yl)ethyl)amino)-9-(3-(pyrrolidin-1-ylmethyl)phenyl)benzo[lmn][3,8]phenanthroline-1,3,6,8(2H,7H)-tetraone], the IC50 was found to be 0.284 nM in data set [1] (read-out: ABS IC50) and 0.282 nM in data set [1] (read-out: Rel IC50).
